Test results published in patent US8609162B2, “Integrated neuromodulation system for mood enhancement of a living human subject” (priority 2012, dated 2013).

Legend:
[1] = doses as low as; cited from earlier work
[2] = system: normal, healthy volunteers; test: clinical trial of subjective mood enhancement after ingestion of the prepared beverage, eight test groups; type: in vivo, human; conditions: for duration of effect: following ingestion of the prepared beverage; for Score, subjective feeling of mood enhancement: scale of 0 (no change) to 10 (euphoric), N=10 per group, oral solution in 125 mL juice, 10 day period; for mood effect as described: subjective report in words
Procedure: A set of clinical trials were performed using the median dosing of a ‘typical formulation’ in randomly selected normal, healthy volunteers ranging from 14 to 80 years (mean age 44.5 years) greater than 50 kg body weight over a 10 day period. At the end of the clinical trial, subjects were asked to subjectively rate the feeling of mood enhancement, ranging from a scale of 0 (no change) to 10 (euphoric) and to rate the duration of effect (in hours) following ingestion of the prepared beverage. Members also were encouraged to report any side effects, if any.
Eight different test groups of ten human subjects each (N=10) were devised as follows:
Test Group 1: Oral solution containing 125 mL juice (7% carbohydrate), 3 times daily. This formulation represents placebo.
Test Group 2: L-Phenylalanine, 800 mg and mucina pruriens, 15% L-DOPA, 200 mg oral solution in 125 mL juice (containing 7% carbohydrate), 3 times daily. This nootropic formulation affects the following neurotransmitter systems: dopamine agonist, a stimulant. The type number ratio is 2:0:0:0:0 to produce a ΔN=+2. This agent fails the test for producing predictable mood enhancement because it is has an imbalanced type number ratio, resulting in a net stimulatory effect (ΔN=+2), and producing a predictable mood over stimulation.
Test Group 3: Phenylethylamine hydrochloride, 400 mg oral solution in 125 mL juice (containing 7% carbohydrate), single dose. This nootropic formulation affects the following neurotransmitter systems: dopamine agonist, a stimulant. The type number ratio is 1:0:0:0:0 to produce a ΔN=+1. This agent fails the test for producing predictable mood enhancement because it is has an imbalanced type number ratio, resulting in a net stimulatory effect (ΔN=+1), and producing a predictable mood over stimulation.
Test Group 4: Dimethylaminoethanol bitartrate, 300 mg oral solution in 125 mL juice (containing 7% carbohydrate), 3 times daily. This nootropic formulation affects the following neurotransmitter systems: acetylcholine agonist, an inhibitor. The type number ratio is 0:1:0:0:0 to produce a ΔN=−1. This agent fails the test for producing predictable mood enhancement because it is has an imbalanced type number ratio, resulting in a net inhibitory effect (ΔN=−1), and producing a predictable mood suppression.
Test Group 5: S-Adenosyl-methionine tosylate disulfate, 300 mg oral solution in 125 mL juice (containing 7% carbohydrate), 3 times daily. This nootropic formulation affects the following neurotransmitter systems: serotonin agonist, an inhibitor. The type number ratio is 0:0:1:0:0 to produce a ΔN=−1. This agent fails the test for producing predictable mood enhancement because it is has an imbalanced type number ratio, resulting in a net inhibitory effect (ΔN=−1), and producing a predictable mood suppression.
Test Group 6: Anhydrous caffeine, 80 mg oral solution in 125 mL juice (containing 7% carbohydrate), 3 times daily. This nootropic formulation affects the following neurotransmitter systems: adenosine antagonist, a stimulant. The type number ratio is 0:0:0:0:1 to produce a ΔN=+1. This agent fails the test for producing predictable mood enhancement because it is has an imbalanced type number ratio, resulting in a net stimulatory effect (ΔN=+1), and producing a predictable mood over stimulation.
Test Group 7: L-Theanine, 200 mg oral solution in 125 mL juice (containing 7% carbohydrate), 3 times daily. This nootropic formulation affects the following neurotransmitter systems: GABA agonist, an inhibitor. The type number ratio is 0:0:0:1:0 to produce a ΔN=−1. This agent fails the test for producing predictable mood enhancement because it is has an imbalanced type number ratio, resulting in a net inhibitory effect (ΔN=−1), and producing a predictable mood suppression. […]

CCN(CC)C(=O)[C@@H]1C=C2c3cccc4[nH]cc(c34)C[C@H]2N(C)C1 [LSD]
dose producing hallucinogenic and entheogenic effects [1]: 30 to 40 µg

Cl.NCCc1ccccc1 [Test Group 3, Phenylethylamine hydrochloride]
side effects reported ([2]; 10 subjects per group): flushing in 4 of 10 subjects
duration of effect [2]: less than 30 minutes
Score, subjective feeling of mood enhancement [2]: 7.5
mood effect as described ([2]; hydrochloride): temporary euphoric feeling
mood effect as described ([2]; listed as Phenylethyamine hydrochloride, hydrochloride): noticeable but short-term effect

Cn1c(=O)c2c(ncn2C)n(C)c1=O [Test Group 6, Anhydrous caffeine]
side effects reported ([2]; 10 subjects per group): No side effects reported
duration of effect [2]: 2 h
Score, subjective feeling of mood enhancement [2]: 3.0
mood effect as described [2]: felt alert

CCNC(=O)CC[C@H](N)C(=O)O [Test Group 7, L-Theanine]
duration of effect [2]: 3 h
side effects reported ([2]; human, in vivo): No side effects reported
Score, subjective feeling of mood enhancement [2]: 6.5
mood effect as described [2]: very calm, sedative-like effect

Dimethylaminoethanol bitartrate [Test Group 4]
side effects reported ([2]; 10 subjects per group): headache in 1 of 10 subjects
duration of effect [2]: less than 1 hours
Score, subjective feeling of mood enhancement [2]: 2.0
mood effect as described [2]: mild effect

S-Adenosyl-methionine tosylate disulfate [Test Group 5]
side effects reported ([2]; 10 subjects per group): No side effects reported
duration of effect [2]: 3 h
Score, subjective feeling of mood enhancement [2]: 6.0
mood effect as described [2]: better mood
mood effect as described ([2]; listed as S-adenosyl-methionine tosylate disulfate): moderate mood enhancement
